Test results as given in the CheMixHub viscosity set.

Experiment: xn = mol fraction of the nth substance listed

CCCCN(CCCC)CCCC + CCCO
viscosity [mPa·s]
Conditions | 298.15 K | 303.15 K | 308.15 K | 313.15 K | 318.15 K | 323.15 K
101.3 kPa, x1 = 0.0929 | – | 1.75 | – | 1.364 | – | –
101.3 kPa, x1 = 0.1877 | – | 1.712 | – | 1.328 | – | –
101.3 kPa, x1 = 0.2897 | – | – | – | 1.289 | – | –
101.3 kPa, x1 = 0.3991 | – | 1.605 | – | 1.245 | – | –
101.3 kPa, x1 = 0.5176 | – | 1.529 | – | – | – | –
101.3 kPa, x1 = 0.616 | – | 1.462 | – | – | – | –
101.3 kPa, x1 = 0.7064 | – | 1.392 | – | – | – | –
101.3 kPa, x1 = 0.8055 | – | 1.307 | – | – | – | –
101.3 kPa, x1 = 0.8864 | – | 1.252 | – | – | – | –
101.33 kPa, x1 = 0.0994 | – | – | – | 1.412 | – | 1.318
101.33 kPa, x1 = 0.1089 | 1.974 | – | 1.622 | – | 1.465 | –
101.33 kPa, x1 = 0.1447 | – | 1.7 | – | 1.398 | – | 1.343
101.33 kPa, x1 = 0.1916 | – | – | – | 1.375 | – | 1.342
101.33 kPa, x1 = 0.2045 | 1.895 | – | 1.558 | – | 1.436 | –
101.33 kPa, x1 = 0.2539 | 1.845 | 1.603 | 1.519 | 1.34 | 1.403 | 1.315
101.33 kPa, x1 = 0.3026 | 1.795 | 1.558 | 1.481 | 1.308 | 1.366 | 1.283
101.33 kPa, x1 = 0.3485 | – | 1.517 | – | 1.277 | – | 1.247
101.33 kPa, x1 = 0.3584 | 1.739 | – | 1.437 | – | 1.32 | –
101.33 kPa, x1 = 0.4003 | 1.7 | 1.473 | 1.407 | 1.244 | 1.286 | 1.206
101.33 kPa, x1 = 0.4469 | 1.66 | 1.436 | 1.375 | 1.216 | 1.249 | 1.17
101.33 kPa, x1 = 0.4987 | 1.619 | 1.4 | 1.342 | 1.187 | 1.211 | 1.133
101.33 kPa, x1 = 0.5417 | – | 1.372 | – | 1.165 | – | 1.104
101.33 kPa, x1 = 0.5569 | 1.58 | – | 1.309 | – | 1.171 | –
101.33 kPa, x1 = 0.6053 | 1.551 | 1.335 | 1.284 | 1.136 | 1.14 | 1.065
101.33 kPa, x1 = 0.6587 | 1.523 | – | 1.259 | – | 1.108 | –
101.33 kPa, x1 = 0.6973 | 1.504 | 1.289 | 1.242 | 1.098 | 1.085 | 1.012
101.33 kPa, x1 = 0.7606 | 1.474 | – | 1.216 | – | 1.047 | –
101.33 kPa, x1 = 0.7832 | – | 1.251 | – | 1.066 | – | 0.962
101.33 kPa, x1 = 0.8067 | 1.454 | – | 1.197 | – | 1.02 | –
101.33 kPa, x1 = 0.9104 | 1.409 | – | 1.156 | – | 0.959 | –
101.33 kPa, x1 = 0.9361 | – | 1.189 | – | 1.013 | – | 0.873
101.33 kPa, x1 = 0.9688 | – | 1.177 | – | 1.004 | – | 0.858

CCCCN(CCCC)CCCC + CC(C)O
viscosity [mPa·s], 101.33 kPa
Conditions | 298.15 K | 303.15 K | 308.15 K | 313.15 K | 318.15 K | 323.15 K
x1 = 0.0562 | 1.977 | – | 1.524 | – | 1.172 | –
x1 = 0.1016 | – | 1.679 | – | 1.292 | – | 1.009
x1 = 0.1175 | 1.876 | – | 1.46 | – | 1.132 | –
x1 = 0.1477 | – | 1.619 | – | 1.256 | – | 0.988
x1 = 0.1499 | 1.827 | – | 1.429 | – | 1.113 | –
x1 = 0.1897 | 1.772 | – | 1.394 | – | 1.092 | –
x1 = 0.1953 | – | 1.562 | – | 1.223 | – | 0.968
x1 = 0.224 | 1.728 | – | 1.367 | – | 1.075 | –
x1 = 0.2585 | – | 1.496 | – | 1.185 | – | 0.945
x1 = 0.2648 | 1.681 | – | 1.338 | – | 1.057 | –
x1 = 0.3035 | 1.641 | – | 1.313 | – | 1.041 | –
x1 = 0.3076 | – | 1.452 | – | 1.16 | – | 0.93
x1 = 0.3493 | 1.6 | – | 1.287 | – | 1.024 | –
x1 = 0.3539 | – | 1.415 | – | 1.139 | – | 0.918
x1 = 0.404 | 1.559 | – | 1.26 | – | 1.007 | –
x1 = 0.4061 | – | 1.379 | – | 1.118 | – | 0.906
x1 = 0.4528 | 1.528 | 1.351 | 1.24 | 1.101 | 0.994 | 0.898
x1 = 0.4899 | 1.508 | – | 1.226 | – | 0.985 | –
x1 = 0.5047 | – | 1.324 | – | 1.086 | – | 0.889
x1 = 0.5476 | – | 1.304 | – | 1.073 | – | 0.884
x1 = 0.5541 | 1.479 | – | 1.206 | – | 0.972 | –
x1 = 0.604 | 1.46 | – | 1.192 | – | 0.962 | –
x1 = 0.611 | – | 1.278 | – | 1.059 | – | 0.876
x1 = 0.6925 | 1.434 | – | 1.172 | – | 0.948 | –
x1 = 0.7023 | – | 1.247 | – | 1.042 | – | 0.866
x1 = 0.7872 | – | 1.221 | – | 1.027 | – | 0.859
x1 = 0.8457 | 1.399 | – | 1.145 | – | 0.927 | –
x1 = 0.9375 | – | 1.181 | – | 1.004 | – | 0.848
x1 = 0.9696 | – | 1.173 | – | 0.999 | – | 0.847
